Measured values from PubChem BioAssay AID248 (DTP/NCI, 2004).
Inconclusive results and toxic doses are left out.

Tested on: L1210 leukemia ip in BDF1 mice, survival T/C
Experiment: NCI In Vivo Anticancer Drug Screen. Data for tumor model L1210 Leukemia (intraperitoneal) in B6D2F1 (BDF1) mice
Details: endpoint: mean survival time, higher = longer survival
Method in brief: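 Value reflects the ratio of survival in compound-treated mice to survival in vehicle-treated controls, with both groups carrying the same transplanted tumor.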

[1] = dose: 100.0 mg/kg/injection, schedule: Q01DX009 (ip), vehicle: Klucel (hydroxypropylcellulose) (HPC)
[2] = dose: 200.0 mg/kg/injection, schedule: Q01DX009 (ip), vehicle: Klucel (hydroxypropylcellulose) (HPC)
[3] = dose: 400.0 mg/kg/injection, schedule: Q01DX009 (ip), vehicle: Klucel (hydroxypropylcellulose) (HPC)

CN(CO)c1nc(N(C)CO)nc(N(C)CO)n1
T/C (dose: 6.25 mg/kg/injection, schedule: Q01DX009 (ip), vehicle: saline): 109 % of control | T/C (dose: 12.5 mg/kg/injection, schedule: Q01DX009 (ip), vehicle: saline): 113 % of control | T/C (dose: 25.0 mg/kg/injection, schedule: Q01DX009 (ip), vehicle: saline): 120 % of control | T/C (dose: 100.0 mg/kg/injection, schedule: Q01DX009 (ip), vehicle: saline): 166 % of control | T/C (dose: 200.0 mg/kg/injection, schedule: Q01DX009 (ip), vehicle: saline): 86 % of control

COc1ccc(OC(=O)CCCl)cc1
T/C (dose: 50.0 mg/kg/injection, schedule: Q01DX009 (ip), vehicle: saline with Tween-80): 98 % of control | T/C (dose: 50.0 mg/kg/injection, schedule: Q04DX003 (ip), vehicle: saline with Tween-80): 104 % of control | T/C (dose: 100.0 mg/kg/injection, schedule: Q01DX009 (ip), vehicle: saline with Tween-80): 104 % of control | T/C (dose: 100.0 mg/kg/injection, schedule: Q04DX003 (ip), vehicle: saline with Tween-80): 95 % of control | T/C (dose: 200.0 mg/kg/injection, schedule: Q01DX009 (ip), vehicle: saline with Tween-80): 105 % of control | T/C (dose: 200.0 mg/kg/injection, schedule: Q04DX003 (ip), vehicle: saline with Tween-80): 95 % of control | T/C (dose: 400.0 mg/kg/injection, schedule: Q01DX009 (ip), vehicle: saline with Tween-80): 121 % of control | T/C (dose: 400.0 mg/kg/injection, schedule: Q04DX003 (ip), vehicle: saline with Tween-80): 104 % of control

c1ccc2c(c1)nc1n2CCC1
T/C (dose: 100.0 mg/kg/injection, schedule: Q01DX001 (ip), vehicle: carboxymethylcellulose (CMC)): 96 % of control | T/C (dose: 200.0 mg/kg/injection, schedule: Q01DX001 (ip), vehicle: carboxymethylcellulose (CMC)): 98 % of control | T/C (dose: 400.0 mg/kg/injection, schedule: Q01DX001 (ip), vehicle: carboxymethylcellulose (CMC)): 102 % of control

O=[N+]([O-])c1ccccc1S(=O)(=O)/C=C/c1ccccc1
T/C (dose: 100.0 mg/kg/injection, schedule: Q01DX001 (ip), vehicle: Klucel (hydroxypropylcellulose) (HPC)): 96 % of control | T/C [1]: 93 % of control | T/C (dose: 100.0 mg/kg/injection, schedule: Q04DX003 (ip), vehicle: Klucel (hydroxypropylcellulose) (HPC)): 100 % of control | T/C (dose: 200.0 mg/kg/injection, schedule: Q01DX001 (ip), vehicle: Klucel (hydroxypropylcellulose) (HPC)): 109 % of control | T/C [2]: 100 % of control | T/C (dose: 200.0 mg/kg/injection, schedule: Q04DX003 (ip), vehicle: Klucel (hydroxypropylcellulose) (HPC)): 106 % of control | T/C (dose: 400.0 mg/kg/injection, schedule: Q01DX001 (ip), vehicle: Klucel (hydroxypropylcellulose) (HPC)): 96 % of control | T/C [3]: 94 % of control | T/C (dose: 400.0 mg/kg/injection, schedule: Q04DX003 (ip), vehicle: Klucel (hydroxypropylcellulose) (HPC)): 101 % of control

O=C(O)CCC(=O)Nc1cccc(Oc2ccc([N+](=O)[O-])cc2[N+](=O)[O-])c1
T/C (dose: 100.0 mg/kg/injection, schedule: Q04DX003 (ip), vehicle: saline): 106 % of control | T/C (dose: 200.0 mg/kg/injection, schedule: Q04DX003 (ip), vehicle: saline): 98 % of control | T/C (dose: 400.0 mg/kg/injection, schedule: Q04DX003 (ip), vehicle: saline): 97 % of control

CC(=O)OC1CCC2(C)C3CCC4(C)C(c5ccc(=O)oc5)CC5OC54C3CCC2(O)C1 (centres undefined)
T/C (dose: 1.0 mg/kg/injection, schedule: Q01DX001 (sc), vehicle: steriod suspending solution): 98 % of control | T/C (dose: 2.0 mg/kg/injection, schedule: Q01DX001 (sc), vehicle: steriod suspending solution): 96 % of control | T/C (dose: 4.0 mg/kg/injection, schedule: Q01DX001 (sc), vehicle: steriod suspending solution): 96 % of control | T/C (dose: 8.0 mg/kg/injection, schedule: Q01DX001 (sc), vehicle: steriod suspending solution): 107 % of control | T/C (dose: 12.0 mg/kg/injection, schedule: Q01DX001 (sc), vehicle: steriod suspending solution): 113 % of control | T/C (dose: 16.0 mg/kg/injection, schedule: Q01DX001 (sc), vehicle: steriod suspending solution): 107 % of control | T/C (dose: 32.0 mg/kg/injection, schedule: Q01DX001 (sc), vehicle: steriod suspending solution): 114 % of control | T/C (dose: 64.0 mg/kg/injection, schedule: Q01DX001 (sc), vehicle: steriod suspending solution): 103 % of control | T/C (dose: 128.0 mg/kg/injection, schedule: Q01DX001 (sc), vehicle: steriod suspending solution): 115 % of control

S=C1Nc2ccccc2CS1
T/C [1]: 100 % of control | T/C [2]: 98 % of control | T/C [3]: 102 % of control

C(CC1CCCC1)=C(CCC1CCCC1)CCC1CCCC1
T/C (dose: 50.0 mg/kg/injection, schedule: Q04DX002 (ip), vehicle: saline with Tween-80): 103 % of control | T/C (dose: 100.0 mg/kg/injection, schedule: Q04DX002 (ip), vehicle: saline with Tween-80): 92 % of control | T/C (dose: 200.0 mg/kg/injection, schedule: Q04DX002 (ip), vehicle: saline with Tween-80): 95 % of control | T/C (dose: 400.0 mg/kg/injection, schedule: Q04DX002 (ip), vehicle: saline with Tween-80): 92 % of control
